In patent publication US12534496B2, “Polymorphic forms of Cyclo (-His-Pro) and methods of use to treat kidney disease” (NovMetaPharma Co., Ltd., priority 2018, dated 2026):
Entries after “also recorded” stand apart in the source; their conditions may differ.

Assays:
Assay type in all cases: physicochemical
[1] = Solvent solubility screen of CHP lyophile
Method: To a known mass of CHP lyophile (10 mg, from Section 5.2.2), 100 μL of the appropriate solvent was added and if solid remained the vial was gently heated to ˜40° C. to aid dissolution. Solvent addition continued until the material fully dissolved or 2 mL had been added (<5 mg/mL). The samples were uncapped and allowed to evaporate at ambient. The solvents used in the solubility screen can be found in Table 21.

[2] = Competitive slurry of Pattern 1 and Pattern 2 in EtOH/water/MtBE (form stability, XRPD)
Method: In order to study form stability in EtOH/water/MtBE, competitive repining experiments were carried out at 50° C., 35° C., and 5° C. respectively, by adding 100 mg of anhydrous Pattern 1 solid and 100 mg of Pattern 2 solid.

[3] = 8-week stability assessment at 40 °C/75% RH (XRPD, appearance, chiral HPLC); details: for Chiral Purity: chiral HPLC
Method: XRPD analysis was carried out on a PANalytical X'pert pro, scanning the samples between 3 and 35° 2θ. The material was gently ground to release any agglomerates and loaded onto a multi-well plate with Kapton or Mylar polymer film to support the sample. The multi-well plate was then placed into the diffractometer and analyzed using Cu K radiation (α1λ=1.54060 Å; α2=1.54443 Å; β=1.39225 Å; α1: α2 ratio=0.5) running in transmission mode (step size 0.0130° 2θ) using 40 kV/40 mA generator settings.
13. Chiral HPLC Column: Daicel IC (5.0 um, 250*4.6 mm) Column Temperature: 30° C. Injection Volume: 5 μL Flow Rate: 1.0 mL/min Mobile Phase A: 0.01% DEA in n-Hexane Mobile Phase B: EtOH:MeOH=2:8 (v/v) Diluent: Acetonitrile PDA Range: 220 nm Gradient program: […]

[4] = 1 day stability assessment at 40 °C/75% RH (XRPD); details: 2 hours at 40 °C/75% RH

O=C1N[C@@H](Cc2cnc[nH]2)C(=O)N2CCC[C@@H]12 [CHP Lyophile, Cyclo (-His-Pro)]
Approximate Solubility ([1]; 1-Butanol): ≥5000 µg/mL | Approximate Solubility ([1]; 2-Butanol): ≥5000 µg/mL | Approximate Solubility ([1]; Dichloromethane): ≤5000 µg/mL | Approximate Solubility ([1]; Ethyl Acetate): ≤5000 µg/mL | Approximate Solubility ([1]; Ethyl Formate): ≤5000 µg/mL | Approximate Solubility ([1]; Heptane): ≤5000 µg/mL | Approximate Solubility ([1]; Isopropyl Acetate): ≤5000 µg/mL | Approximate Solubility ([1]; Methylethyl Ketone): ≤5000 µg/mL | Approximate Solubility ([1]; Methylisobutyl Ketone): ≤5000 µg/mL | Approximate Solubility ([1]; Nitromethane): ≤5000 µg/mL | Approximate Solubility ([1]; THF): ≤5000 µg/mL | Approximate Solubility ([1]; acetone): ≤5000 µg/mL | Approximate Solubility ([1]; acetonitrile): ≤5000 µg/mL | Approximate Solubility ([1]; tert-Butylmethyl Ether): ≤5000 µg/mL

O=C1N[C@@H](Cc2c[nH]cn2)C(=O)N2CCC[C@@H]12 [Pattern 1 and Pattern 2]
XRPD tracking ([2]; (EtOH:H2O = 9:1):MTBE = 1:2, 5 °C, 0 h): Pattern 2 | XRPD tracking ([2]; (EtOH:H2O = 9:1):MTBE = 1:2, 5 °C, 2 h): Pattern 2 | XRPD tracking ([2]; (EtOH:H2O = 9:1):MTBE = 1:2, 5 °C, 6 d): Pattern 2 | XRPD tracking ([2]; (EtOH:H2O = 9:1):MTBE = 1:2, 5 °C, 7 d): Pattern 2 | XRPD tracking ([2]; (EtOH:H2O = 9:1):MTBE = 1:2, 35 °C, 0 h): Pattern 2 | XRPD tracking ([2]; (EtOH:H2O = 9:1):MTBE = 1:2, 35 °C, 2 h): Pattern 2 | XRPD tracking ([2]; (EtOH:H2O = 9:1):MTBE = 1:2, 50 °C, 0 h): Pattern 2 | XRPD tracking ([2]; (EtOH:H2O = 9:1):MTBE = 1:2, 50 °C, 2 h): Pattern 2 | XRPD tracking ([2]; (EtOH:H2O = 9:1):MTBE = 1:3, 5 °C, 0 h): Pattern 2 | XRPD tracking ([2]; (EtOH:H2O = 9:1):MTBE = 1:3, 5 °C, 2 h): Pattern 2 | XRPD tracking ([2]; (EtOH:H2O = 9:1):MTBE = 1:3, 5 °C, 6 d): Pattern 2 | XRPD tracking ([2]; (EtOH:H2O = 9:1):MTBE = 1:3, 5 °C, 7 d): Pattern 2 | XRPD tracking ([2]; (EtOH:H2O = 9:1):MTBE = 1:3, 35 °C, 0 h): Pattern 2 | XRPD tracking ([2]; (EtOH:H2O = 9:1):MTBE = 1:3, 35 °C, 2 h): Pattern 2 | XRPD tracking ([2]; (EtOH:H2O = 9:1):MTBE = 1:3, 35 °C, 6 d): Pattern 2 | XRPD tracking ([2]; (EtOH:H2O = 9:1):MTBE = 1:3, 35 °C, 7 d): Pattern 2 | XRPD tracking ([2]; (EtOH:H2O = 9:1):MTBE = 1:3, 50 °C, 0 h): Pattern 2 | XRPD tracking ([2]; (EtOH:H2O = 9:1):MTBE = 1:3, 50 °C, 2 h): Pattern 2 | XRPD tracking ([2]; (EtOH:H2O = 9:1):MTBE = 1:3, 50 °C, 6 d): Pattern 2 | XRPD tracking ([2]; (EtOH:H2O = 9:1):MTBE = 1:3, 50 °C, 7 d): Pattern 2 | XRPD tracking ([2]; (EtOH:H2O = 9:1):MTBE = 2.5:0.5, 5 °C, 0 h): Pattern 2 | XRPD tracking ([2]; (EtOH:H2O = 9:1):MTBE = 2.5:0.5, 5 °C, 2 h): Pattern 2 | XRPD tracking ([2]; (EtOH:H2O = 9:1):MTBE = 2.5:0.5, 5 °C, 6 d): Pattern 2 | XRPD tracking ([2]; (EtOH:H2O = 9:1):MTBE = 2.5:0.5, 5 °C, 7 d): Pattern 2 | XRPD tracking ([2]; (EtOH:H2O = 9:1):MTBE = 2.5:0.5, 35 °C, 0 h): Pattern 2 | XRPD tracking ([2]; (EtOH:H2O = 9:1):MTBE = 2.5:0.5, 35 °C, 2 h): Pattern 2 | XRPD tracking ([2]; (EtOH:H2O = 9:1):MTBE = 2.5:0.5, 35 °C, 6 d): Pattern 2 | XRPD tracking ([2]; (EtOH:H2O = 9:1):MTBE = 2.5:0.5, 35 °C, 7 d): Pattern 2 | XRPD tracking ([2]; (EtOH:H2O = 9:1):MTBE = 2.5:0.5, 50 °C, 0 h): Pattern 2 | XRPD tracking ([2]; (EtOH:H2O = 9:1):MTBE = 2.5:0.5, 50 °C, 2 h): Pattern 2 | XRPD tracking ([2]; (EtOH:H2O = 9:1):MTBE = 2.5:0.5, 50 °C, 6 d): Pattern 2 | XRPD tracking ([2]; (EtOH:H2O = 9:1):MTBE = 3:0, 5 °C, 0 h): Pattern 2 | XRPD tracking ([2]; (EtOH:H2O = 9:1):MTBE = 3:0, 5 °C, 2 h): Pattern 2 | XRPD tracking ([2]; (EtOH:H2O = 9:1):MTBE = 3:0, 5 °C, 6 d): Pattern 2 | XRPD tracking ([2]; (EtOH:H2O = 9:1):MTBE = 3:0, 5 °C, 7 d): Pattern 2 | XRPD tracking ([2]; (EtOH:H2O = 9:1):MTBE = 3:0, 35 °C, 0 h): Pattern 2 | XRPD tracking ([2]; (EtOH:H2O = 9:1):MTBE = 3:0, 35 °C, 2 h): Pattern 2 | XRPD tracking ([2]; (EtOH:H2O = 9:1):MTBE = 3:0, 35 °C, 6 d): Pattern 2 | XRPD tracking ([2]; (EtOH:H2O = 9:1):MTBE = 3:0, 35 °C, 7 d): Pattern 2 | XRPD tracking ([2]; (EtOH:H2O = 9:1):MTBE = 3:0, 50 °C, 0 h): Pattern 2

O=C1N[C@@H](Cc2cnc[nH]2)C(=O)N2CCC[C@@H]12 [Pure Pattern 1, Cyclo (-His-Pro)]
Appearance ([3]; 2-week): Faint beige | Appearance ([3]; 4-week): Faint beige | XRPD form after storage ([3]; 4 weeks): remained as pattern 2 | Appearance ([3]; 8-week): Faint beige | XRPD form after storage ([3]; 8 weeks): remained as pattern 2 | Appearance ([3]; Initial): Faint beige | Chiral Purity ([3]; 2-week): 99.9% | Chiral Purity ([3]; 4-week): 99.9% | Chiral Purity ([3]; 8-week): 99.9% | Chiral Purity ([3]; Initial): >99.9% | XRPD form after storage ([3]; two weeks (14 days)): converted to pattern 2; also recorded: converting to the hydrated pattern 2 | XRPD form after storage ([4]; listed as Pure pattern 1): convert to pattern 2 | XRPD form after storage ([4]; listed as pure pattern 1): converts to pattern 2
